Reference: patent publication US9856288B2, “Tripeptide epoxyketone compound constructed by heterocycle and preparation method and use thereof” (ZHEJIANG UNIVERSITY, priority 2014, dated 2018)
Where “and” joins values, the source holds several entries; their conditions need not be identical. Equal entries are not always repeated. Where two headings read alike, the source gives them in different places.

Key:
[1] = MTT proliferation inhibition, NCI-H929
Method: (§3) Experimental Method: Cell viability was determined by MTT method preformed as follows. Cells grown at the logarithmic growth phase was digested with a 0.01% trypsin, counted, plated in a 96-cell plate at a cell density of 2.0*10^3/well for 100 ml, and cultured in a 5% CO2 incubator at a temperature of 37° C. overnight. For each of the compounds, a gradient of six concentrations were set, in triplicate for each concentration. […] 20 ml of 5 mg/ml MTT was added to each of the cells. After incubation at a temperature of 37° C. for 3 h, supernatant was removed by suction. 100 ml of DMSO was added for dissolution. Absorption at 550 nm (L1) was determined by using SpectraMAX 340 with a reference wavelength of 690 nm (L2). The values of (L1-L2) were plotted against various concentrations, and fitted into a formula to give IC50.

[2] = MTT proliferation inhibition, RPMI8226
Method: as §3

MM-1R = assay: MTT cell activity, MM-1R; format: cell-based; settings: 100 nM
K562 = assay: MTT cell activity, K562; format: cell-based; settings: Homo sapiens
MGC-803 = assay: MTT proliferation inhibition, MGC-803; format: cell-based; settings: Homo sapiens
Method: (§1) […] of DMSO was added for dissolution.
(§2) The experimental method may be referred to Test Example 2, except that the cell strains of RPMI8226 and NCI-H929 were replaced with corresponding tumor cells.

HELA = assay: MTT cell activity, HELA; format: cell-based; settings: Homo sapiens
HCT116 = assay: MTT proliferation inhibition, HCT116; format: cell-based; settings: Homo sapiens
Method: as §1, §2

LP1 = assay: MTT proliferation inhibition, LP1; format: cell-based; settings: Homo sapiens, LP-1
Method: as §1, §2

MTT cell activity, BORT = format: cell-based
Method: as §3

[3] = test system: subcutaneous xenograft of human myeloma RPMI 8226; assay: Growth inhibition of subcutaneous xenograft of human myeloma RPMI 8226 in NOD/SCID mice; format: in vivo; settings: for Tumor inhibition (%) / Tumor weight (g) mean ± SD: RPMI8226 xenograft NOD/SCID mice; for Tumor weight (g), single animals: individual mice
Method: Experimental Method: Human myeloma RPMI8226 cell strain was inoculated subcutaneously at right flank of NOD/SCID mice with an inoculation quantity of 1×10^7 cells/mouse. After forming a xenograft, the experiment was started.
The diameters of subcutaneous xenografts of NOD/SCID mice were measured with a vernier caliper. After the tumor was grown to the size of 100-300 mm^3, the animals were grouped randomly. Equal volume of blank solvent was administered to the group of solvent control. During the experimentation, the diameters of subcutaneous xenografts were measured twice a week, and the mice were weighed at the same time.

MM-1S = assay: MTT cell activity, MM-1S; format: cell-based; settings: Homo sapiens, MM1.S; 100 nM
Method: as §3

PC-3 = assay: MTT proliferation inhibition, PC-3; format: cell-based; settings: Homo sapiens
Method: as §1, §2

MCF-7 = assay: MTT proliferation inhibition, MCF-7; format: cell-based; settings: Homo sapiens, MCF7
Method: as §1, §2

[4] = target: proteasome T-L active site (Homo sapiens, UniProt Q99436); assay: Proteasome T-L inhibition, substrate Bz-Val-Gly-Arg-AMC; format: biochemical
[5] = target: proteasome PGPH active site (Homo sapiens, UniProt P28072); assay: Proteasome PGPH inhibition, substrate Z-Leu-Leu-Glu-AMC; format: biochemical
[6] = target: Human proteasome chymotrypsin-like protease (Homo sapiens, UniProt P28074); assay: Proteasome CT-L inhibition, fluorescent substrate Suc-Leu-Leu-Val-Tyr-AMC; format: biochemical
Text: Experimental Method: By using a fluorescent substrate Suc-Leu-Leu-Val-Tyr-AMC to observe the inhibition of various compounds on activity of the enzyme, the inhibitory effect of the compounds was preliminarily evaluated. Human proteasome chymotrypsin-like protease may hydrolyze the sequence Tyr-AMC of the substrate to release AMC.

NCI-H929 cell = assay: MTT proliferation inhibition, NCI-H929; settings: Homo sapiens, NCI-H929, 72 h, read-out: Cytotoxicity IC50 (nM) NCI-H929 cell
Method: as §3

RPMI8226 cell = assay: MTT proliferation inhibition, RPMI8226; settings: Homo sapiens, RPMI-8226, 72 h, read-out: Cytotoxicity IC50 (nM) RPMI8226 cell
Method: as §3

CCN1CC1(C)C(=O)[C@H](CC(C)C)NC(=O)[C@H](Cc1ccccc1)NC(=O)[C@H](CC(C)C)NC(=O)N1CCC(C(=O)Nc2cnccn2)CC1 (stereo partly drawn) [Compound 5w, 4-(pyrazin-2-yl carbamoyl)piperidin-1-oyl-Leu-Phe-Leu-(N-ethyl aziridinone)]
IC50 [1]: > 1000 nM | IC50 [2]: > 1000 nM

CC(C)C[C@H](NC(=O)N1CCC(C(=O)Nc2cnccn2)CC1)C(=O)N[C@@H](Cc1ccccc1)C(=O)N[C@@H](CC(C)C)C(=O)C1(C)CN1 (stereo partly drawn) [Compound 5v, 4-(pyrazin-2-yl carbamoyl)piperidin-1-oyl-Leu-Phe-Leu-aziridinone]
IC50 [1]: > 1000 nM | IC50 [2]: > 1000 nM

CC(C)C[C@H](NC(=O)N1CCC(C(=O)Nc2ccccn2)CC1)C(=O)N[C@@H](Cc1ccccc1)C(=O)N[C@@H](CC(C)C)C(=O)[C@@]1(C)CO1 [Compound 5k, 4-(pyridin-2-yl carbamoyl)piperidin-1-oyl-Leu-Phe-Leu-epoxy ketone]
activity at 0.1 µM (MM-1R): 88.2 ± 7.24% | IC50 [1]: 15.3 nM | activity at 10 µM (K562): 55.6 ± 1.53% | IC50 (MGC-803): 3.72 ± 0.13 nM | activity at 10 µM (HELA): 55.8 ± 3.53% | IC50 (HCT116; HCT-116, read-out: IC50 HCT116): 0.00572 ± 0.00072 µM | IC50 [2]: 2.5 nM | IC50 (LP1): 15.2 ± 2.82 nM | activity at 1 µM (MTT cell activity, BORT): 54.5 ± 2.13% | Tumor inhibition (%) ([3]; 4 mg/kg): 53.62% | Tumor weight (g) mean ± SD ([3]; 4 mg/kg): 0.59 ± 0.24 g | Tumor weight (g), single animals ([3]; 4 mg/kg): 0.20 g and 0.66 g and 0.44 g and 0.52 g and 0.72 g and 0.98 g | activity at 0.1 µM (MM-1S): 72.2 ± 3.19% | IC50 (PC-3): 7.74 ± 0.77 µM | IC50 (MCF-7): 0.42 ± 0.04 µM | IC50 [4]: 3180 ± 47.2 nM | T-L (Fold/CT-L) ([4]; ratio of T-L IC50 to CT-L IC50): (2107.0) | PGHP (Fold/CT-L) ([5]; ratio of PGHP IC50 to CT-L IC50): 321.0 | IC50 ([5]; read-out: IC50 (nM) PGHP): 485 ± 26.1 nM | IC50 [6]: 1.5 nM

CC(C)C[C@H](NC(=O)[C@H](CCc1ccccc1)NC(=O)CN1CCOCC1)C(=O)N[C@@H](Cc1ccccc1)C(=O)N[C@@H](CC(C)C)C(=O)[C@@]1(C)CO1 [Carfilzomib, reference compound]
activity at 0.1 µM (MM-1R): 92.2 ± 6.34% | IC50 (NCI-H929 cell): 28.8 nM | activity at 10 µM (K562): 58.6 ± 1.04% | IC50 (MGC-803): 8.95 ± 0.12 nM | activity at 10 µM (HELA): 61.2 ± 3.44% | IC50 (HCT116; HCT-116, MTT): 8.93 ± 1.44 µM | IC50 (RPMI8226 cell): 3 nM | IC50 (LP1): 22.7 ± 2.51 nM | activity at 1 µM (MTT cell activity, BORT): 61.1 ± 2.49% | Tumor inhibition (%) ([3]; 4 mg/kg): 58.10% | Tumor weight (g) mean ± SD ([3]; 4 mg/kg): 0.53 ± 0.21 g | Tumor weight (g), single animals ([3]; 4 mg/kg): 0.57 g and 0.38 g and 0.32 g and 0.85 g | activity at 0.1 µM (MM-1S): 76.2 ± 1.36% | IC50 (PC-3): 24.2 ± 2.72 µM | IC50 (MCF-7): 1.02 ± 0.07 µM

CC(C)C[C@H](NC(=O)N1CCC(C(=O)Nc2ccc(F)cc2)CC1)C(=O)N[C@@H](Cc1ccccc1)C(=O)N[C@@H](CC(C)C)C(=O)C1(C)CS1 (stereo partly drawn) [Compound 5u, 4-(4-fluorophenyl carbamoyl)piperidin-1-oyl-Leu-Phe-Leu-cyclothione]
IC50 [1]: > 1000 nM | IC50 [2]: > 1000 nM

CC(C)C[C@H](NC(=O)N1CCN(C(=O)c2cnccn2)CC1)C(=O)N[C@@H](Cc1ccccc1)C(=O)N[C@@H](CC(C)C)C(=O)[C@@]1(C)CO1 [Compound 5c, 4-(pyrazin-2-oyl)piperazin-1-oyl-Leu-Phe-Leu-epoxy ketone]
IC50 [1]: 100 nM | IC50 [2]: 28.9 nM | IC50 [6]: 90.8 nM

CC(C)C[C@H](NC(=O)[C@H](Cc1ccccc1)NC(=O)c1cnccn1)B(O)O [Bortezomib]
IC50 (NCI-H929 cell): 9.5 nM | IC50 (RPMI8226 cell): 1.8 nM | Tumor inhibition (%) ([3]; 1 mg/kg): 34.78% | Tumor weight (g) mean ± SD ([3]; 1 mg/kg): 0.83 ± 0.25 g | Tumor weight (g), single animals ([3]; 1 mg/kg): 1.21 g and 0.38 g and 0.92 g and 0.90 g and 0.74 g and 0.80 g

CC(C)C[C@H](NC(=O)N1CCC(C(=O)Nc2cnccn2)CC1)C(=O)N[C@@H](Cc1ccccc1)C(=O)N[C@@H](CC(C)C)C(=O)C1(C)CS1 (stereo partly drawn) [Compound 5t, 4-(pyrazin-2-yl carbamoyl)piperidin-1-oyl-Leu-Phe-Leu-cyclothione]
IC50 [1]: > 1000 nM | IC50 [2]: > 1000 nM
